Patent publication US20260308177A1, “THIAZOLOPYRIDIN-7(4H)-ONE WRN INHIBITORS” (NIMBUS WADJET, INC., priority 2023, published 2026)
Read-outs that look alike come from different tables or passages of the source.

Legend:
p21 in HCT116 cells = molecular target: T1, p21 in HCT116 cells (Homo sapiens, UniProt Q14191); test: p21 induction in HCT116 cells; type: cell-based; conditions: 24 h, p21/GAPDH signal ratio, % activation vs internal reference WRN inhibitor, read-out: P21_EC50
T1 construct: p21 induction in-cell western, 24 h
Method: (§1) Example 3: Method for Determining Effect on p21 Induction in Cells
(§2) The colon carcinoma cell line HCT116 was obtained from ATCC and cultured in growth medium consisting of Mccoy's 5A Medium (Gibco 16600108) supplemented with 10% FBS (Transgene FS201-02) and 100 units/mL penicillin-streptomycin (Gibco 15140122) and maintained at 37° C. under 5% CO2. On the day of seeding, 2,000 cells in 30 μL of culture media were plated per well to Poly-D-Lysine 384 Well Black Clear Plates (Biocoat 356663) and incubated overnight at 37° C. under 5% CO2. The following day, compounds were serially diluted in DMSO for a total of 11 test concentrations. The typical starting concentration of cpds was 10 uM with 2-fold dilutions. Next, 150 nL of diluted compound was added in duplicate to the assay plate, using an Echo 655 (Labcyte). The plate was centrifuged at 500 RPM for 1 min and then incubated at 37° C. under 5% CO2 for 24 h. After 24 h, medium was removed, and cells were fixed by adding 40 μL of 4% paraformaldehyde solution to each well and incubated for 20 min at room temperature. The plate was then washed 4 times with 100 μL per well of wash buffer (PBS with 0.1% Tween-20) using a microplate washer. Next, 30 μL of ice-cold methanol was added to each well and the plate was incubated at −20° C. for 10 min. The plate was washed 4 times with 100 µL per well of wash buffer by a microplate washer, then 30 μL per well of blocking buffer ((Intercept PBS blocking buffer (LI-COR 927-70001) with 0.05% Tween-20)) was added and the plate was incubated at room temperature with shaking for 2 h. Next, to each test well, 20 μL of primary antibody solution ((p21 Waf1/CIP (12D1) Rabbit mAb (Cell Signaling Technologies 2947) diluted 1:1000 and GAPDH (D4C6R) Mouse mAb (Cell Signaling Technologies 97166) diluted 1:2000 in blocking buffer)) was added and the plate was placed at 4° C., overnight. The following day, the plate was washed 5 times with 100 μL per well of wash buffer using a microplate washer for 5 min. 20 μL per well of secondary antibody ((IRDye 680CW Goat anti-Mouse IgG (H+L) (LI-COR 926-68070) diluted 1: 2000 in Blocking Buffer and IRDye 800CW Goat anti-Rabbit IgG (H+L) (LI-COR 926-32211) diluted 1: 2000 in Blocking Buffer)) was then added and the plate was stored for 2 h in the dark at room temperature with shaking. The plate was then washed 4 times with 100 μL per well of wash buffer again using a microplate washer. Finally, the p21 signal and the GAPDH signal were quantified using a LI-COR Odyssey CLx Imager machine reading at 800 nm and 700 nm, respectively. Each plate contained DMSO control (low control) and an internal reference WRN inhibitor (high control) respectively. For quantitation, the 800 nm/700 nm ratio was calculated for each well to give fold p21 induction and then percent activation for each compound well was calculated as follows ((100×(ratio cpd well-ratio low control)/(ratio high control−ratio low control)). EC50 values for each compound was generated after non-linear regression curve fitting using commercially available software.

[1] = molecular target: T2, human Werner helicase (WRN-BV08, amino acids 517-1235, L1074F) (Homo sapiens, UniProt Q14191, L1074F); test: WRN (BV08) ADP-Glo Assay (ATPase inhibition); type: biochemical
T2 construct: TEV-cleavable 8×His tag (C, cleaved yes); made in house; host or cells: Sf9 insect cells (baculovirus)
Text: Example 2: WRN (BV08) ADP-Glo Assay Protocol
Bovine skin gelatin (BSG), dimethyl sulfoxide (DMSO), Pluronic F-127 and tris(2-carboxyethyl)phosphine hydrochloride solution (TCEP) were purchased from Sigma-Aldrich (St. Louis, MO) at the highest level of purity possible. Bicine buffer solution was purchased from Alfa Aesar (Tewksbury, MA) and compound NSC-617145 was purchased from Tocris (Minneapolis, MN). DNA duplex was synthesized at BGI (Shenzhen, China) and was composed of strand 1 with the sequence 5′-[…]-3′ (SEQ ID NO.: 1) and strand 2 with the sequence 5′-[…]-3′ (SEQ ID NO.: 2). DNA strands were annealed by heating to 95° C. for 5 minutes followed by slow cooling to room temperature. Compounds in 100% DMSO (0.1 μl) were spotted into a 384-well white polystyrene Optiplate-384 (Perkin Elmer; Waltham, MA) assay plate using a LabCyte Echo 550 (Agilent; Santa Clara, CA). DMSO (0.1 μl) was added to columns 12, rows A-H and column 24, rows I-P for the maximum signal control. Compound NSC-617145 (0.1 μl) was added to columns 12, rows I-P and 24, rows A-H for the minimum signal control (100% inhibition). Compounds/DMSO were preincubated for 15 minutes at 25° C. with 5 μl 2×WRN (BV08), prepared as described below, in assay buffer containing 20 mM Bicine (pH=7.5), 1 mM MgCl2, 10 mM KCl, 0.1% Pluronic F-127, 0.005% BSG, 1 mM TCEP. The reaction was initiated by the addition of 5 μl 2× substrate mixture in assay buffer and incubated for 60 minutes at 25° C. The final concentrations of the assay components were 0.15 nM WRN, 5 μM ATP, and 0.1 nM DNA duplex. The final DMSO concentration was 1% and the reference compound concentration (NSC-617145) used for the minimal signal control was 20 μM. The reaction was stopped by the addition of the ADP-Glo Kit components (Promega; Madison, WI) as directed and the relative luminescence units (RLU) were read on an Envision 2104 (Perkin Elmer; Waltham, MA). % inhibition calculation:
Where RLU=relative luminescence units, sample=signal in sample well, and MIN and MAX are the respective minimum and maximum signal controls.
Four-parameter IC50 fit equation:
Where top and bottom are normally allowed to float but may be fixed at 100 or 0 respectively in a 3-parameter fit. Y is the % inhibition and X is the compound concentration.
Molecular Biology and virus production. The DNA encoding human Werner helicase (Uniprot Q14191, amino acids 517-1235 with L1074F point mutation) was generated with codon-optimization for E. coli expression and subcloned into the pFastBac vector with a TEV cleavable 8×His tag (WRN—BV08). The baculovirus from the expression plasmid WRN—BV08 was generated from transfection and amplification following the manufacturer's instructions.
Sf9 cells grown in SF900II media were infected with 1:200 WRN—BV08 P2 virus and incubated for protein expression for 72 h at 27° C. The WRN protein was purified using the following protocol. The cell pellets were thawed and resuspended in buffer A (50 mM Tris, pH 7.5, 500 mM NaCl, 1 mM TCEP, 10% Glycerol) supplemented with 0.5% CHAPS, 1 mM [COMPOUND LEFT OUT], 1 μg/ml Leupeptin, 1 μg/ml Pepstatin, and the Pierce Universal Nuclease and cocktail tablet. Cleared lysates were loaded onto a Ni Sepharose™ excel column and washed with buffer A and bound protein was eluted with buffer A supplemented with 300 mM imidazole. The eluted protein was dialyzed against buffer A and digested by His-tagged TEV (1:5 ratio) overnight at 4° C. ZnCl2 was added into the sample at final 15 μM before loading onto a second Ni Sepharose™ excel column. Untagged WRN protein was eluted from the column with buffer A supplemented with 20 mM imidazole, dialyzed overnight into buffer B (50 mM Tris, pH 7.5, 1 mM TCEP, 10% Glycerol) supplemented with 150 mM NaCl and loaded onto a Heparin column. Proteins were eluted with a step gradient of buffer B supplemented with 150 mM, 200 mM, 300 mM and 500 mM NaCl. […]

[2] = p21 induction in HCT116 cells; type: cell-based, human; conditions: read-out: P21_EC50, 24 h, p21/GAPDH signal ratio, % activation vs internal reference WRN inhibitor
Method: as §1, §2

[3] = 0.15 nM WRN, 5 μM ATP, 0.1 nM DNA duplex, pH 7.5, 15 min preincubation, 60 min at 25° C., 1% DMSO, read-out: ADP-Glo_hWRN_IC50

T1 sequence (Q14191 whole entry): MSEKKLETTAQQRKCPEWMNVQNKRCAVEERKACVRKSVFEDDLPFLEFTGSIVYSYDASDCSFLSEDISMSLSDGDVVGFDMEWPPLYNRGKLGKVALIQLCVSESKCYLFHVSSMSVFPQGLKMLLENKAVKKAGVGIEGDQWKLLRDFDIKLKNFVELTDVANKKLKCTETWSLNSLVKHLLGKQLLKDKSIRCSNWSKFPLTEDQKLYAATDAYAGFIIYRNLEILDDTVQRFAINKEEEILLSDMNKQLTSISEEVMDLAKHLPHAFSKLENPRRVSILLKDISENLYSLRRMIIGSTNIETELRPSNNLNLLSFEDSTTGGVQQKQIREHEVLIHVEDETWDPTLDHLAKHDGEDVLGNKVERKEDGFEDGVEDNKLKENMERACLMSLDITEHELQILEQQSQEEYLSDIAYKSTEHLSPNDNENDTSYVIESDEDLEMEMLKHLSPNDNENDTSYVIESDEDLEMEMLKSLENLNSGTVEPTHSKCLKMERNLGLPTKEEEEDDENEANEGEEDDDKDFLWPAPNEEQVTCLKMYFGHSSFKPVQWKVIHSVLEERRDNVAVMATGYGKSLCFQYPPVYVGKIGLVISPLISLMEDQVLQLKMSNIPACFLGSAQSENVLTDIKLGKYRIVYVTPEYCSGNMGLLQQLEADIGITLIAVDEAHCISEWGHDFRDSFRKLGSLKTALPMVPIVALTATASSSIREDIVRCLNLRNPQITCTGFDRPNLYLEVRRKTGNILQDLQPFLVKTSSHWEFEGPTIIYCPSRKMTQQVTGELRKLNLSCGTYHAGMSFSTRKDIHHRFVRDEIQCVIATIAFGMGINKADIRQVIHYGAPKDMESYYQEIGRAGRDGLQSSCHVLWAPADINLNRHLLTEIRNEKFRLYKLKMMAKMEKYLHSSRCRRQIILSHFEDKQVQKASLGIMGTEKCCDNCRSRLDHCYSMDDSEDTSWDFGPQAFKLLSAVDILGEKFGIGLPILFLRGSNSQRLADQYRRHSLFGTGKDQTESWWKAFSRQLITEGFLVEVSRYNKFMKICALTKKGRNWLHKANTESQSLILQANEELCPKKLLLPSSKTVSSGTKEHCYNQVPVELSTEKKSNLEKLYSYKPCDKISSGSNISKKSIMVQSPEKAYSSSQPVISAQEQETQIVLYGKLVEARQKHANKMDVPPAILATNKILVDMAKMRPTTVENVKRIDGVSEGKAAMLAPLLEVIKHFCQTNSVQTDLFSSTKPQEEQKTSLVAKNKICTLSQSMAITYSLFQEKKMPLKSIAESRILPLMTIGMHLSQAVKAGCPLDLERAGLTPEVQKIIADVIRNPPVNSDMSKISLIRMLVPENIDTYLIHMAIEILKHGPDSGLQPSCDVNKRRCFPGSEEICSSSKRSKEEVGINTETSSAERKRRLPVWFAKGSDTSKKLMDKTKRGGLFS
T2 sequence (Q14191 with tags, fused parts or gaps L1074F): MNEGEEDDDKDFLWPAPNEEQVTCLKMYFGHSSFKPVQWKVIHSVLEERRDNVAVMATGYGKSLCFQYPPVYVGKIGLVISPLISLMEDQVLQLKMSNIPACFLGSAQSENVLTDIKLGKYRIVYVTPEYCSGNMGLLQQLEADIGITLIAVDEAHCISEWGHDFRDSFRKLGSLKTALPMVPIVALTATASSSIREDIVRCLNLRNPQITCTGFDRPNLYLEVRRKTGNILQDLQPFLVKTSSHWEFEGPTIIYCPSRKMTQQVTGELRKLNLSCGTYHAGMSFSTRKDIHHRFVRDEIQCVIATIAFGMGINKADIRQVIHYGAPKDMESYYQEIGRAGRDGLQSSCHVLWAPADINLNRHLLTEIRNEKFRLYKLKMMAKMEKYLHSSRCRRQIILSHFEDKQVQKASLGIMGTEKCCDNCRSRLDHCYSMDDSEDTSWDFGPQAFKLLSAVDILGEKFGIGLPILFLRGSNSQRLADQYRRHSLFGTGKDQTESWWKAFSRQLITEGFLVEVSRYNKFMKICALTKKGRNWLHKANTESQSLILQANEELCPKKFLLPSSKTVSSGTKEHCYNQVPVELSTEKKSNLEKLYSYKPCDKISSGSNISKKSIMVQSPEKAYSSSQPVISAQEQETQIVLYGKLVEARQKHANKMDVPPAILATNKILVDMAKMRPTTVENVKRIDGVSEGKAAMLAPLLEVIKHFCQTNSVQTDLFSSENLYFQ

EC50 (p21 in HCT116 cells)	IC50 [1, 3]	IC50 [1]	EC50 [2]	Structure (SMILES)
2000 to 5000 nM	–	–	–	CCc1c(N2CCN(C(=O)c3ncnc(C)c3O)CC2)c(=O)c2nc(C3=CCOCC3)sc2n1CC(=O)Nc1ccc(C(F)(F)F)cc1Cl [1-3]
–	5 to 50 nM	–	–	CCc1c(N2CCN(C(=O)c3ncnc(C)c3O)CC2)c(=O)c2nc(-c3cnn(C)c3)sc2n1CC(=O)Nc1ccc(C(F)(F)F)cc1Cl [1-7]
500 to 2000 nM	5 to 50 nM	–	–	CCc1c(N2CCN(C(=O)c3ncnc(C)c3O)CC2)c(=O)c2nc(-c3ccnc(OC)c3)sc2n1CC(=O)Nc1ccc(C(F)(F)F)cc1Cl [Compound I-1, N-(2-chloro-4-(trifluoromethyl)phenyl)-2-(5-ethyl-6-(4-(5-hydroxy-6-methylpyrimidine-4-carbonyl)piperazin-1-yl)-2-(2-methoxypyridin-4-yl)-7-oxothiazolo[5,4-b]pyridin-4(7H)-yl)acetamide]
< 500 nM	< 5 nM	–	–	CCc1c(N2CCN(C(=O)c3ncnc(C)c3O)CC2)c(=O)c2sc(-c3ccnc(OC)c3)nc2n1CC(=O)Nc1ccc(C(F)(F)F)cc1Cl [Compound I-2, N-(2-chloro-4-(trifluoromethyl)phenyl)-2-(5-ethyl-6-(4-(5-hydroxy-6-methylpyrimidine-4-carbonyl)piperazin-1-yl)-2-(2-methoxypyridin-4-y1)-7-oxothiazolo[4,5-b]pyridin-4(7H)-yl)acetamide]
–	5 to 50 nM	–	–	CCc1c(N2CCN(C(=O)c3ncnc(C)c3O)CC2)c(=O)c2nc(C3=CCOCC3)sc2n1CC(=O)Nc1ccc(C(F)(F)F)cc1Cl [Compound I-3, N-(2-chloro-4-(trifluoromethyl)phenyl)-2-(2-(3,6-dihydro-2H-pyran-4-y1)-5-ethyl-6-(4-(5-hydroxy-6-methylpyrimidine-4-carbonyl)piperazin-1-yl)-7-oxothiazolo[5,4-b]pyridin-4(7H)-yl)acetamide]
2000 to 5000 nM	5 to 50 nM	–	–	CCc1c(N2CCN(C(=O)c3ncnc(C)c3O)CC2)c(=O)c2nc(N3CCCC3)sc2n1CC(=O)Nc1ccc(C(F)(F)F)cc1Cl [Compound I-4, N-(2-chloro-4-(trifluoromethyl)phenyl)-2-(5-ethyl-6-(4-(5-hydroxy-6-methylpyrimidine-4-carbonyl)piperazin-1-yl)-7-oxo-2-(pyrrolidin-1-yl)thiazolo[5,4-b]pyridin-4(7H)-yl)acetamide]
500 to 2000 nM	5 to 50 nM	–	–	CCc1c(N2CCN(C(=O)c3c(O)ccnc3OC)CC2)c(=O)c2nc(-c3ccnc(OC)c3)sc2n1CC(=O)Nc1ccc(C(F)(F)F)cc1Cl [Compound I-5, N-(2-chloro-4-(trifluoromethyl)phenyl)-2-(5-ethyl-6-(4-(4-hydroxy-2-methoxynicotinoyl)piperazin-1-y1)-2-(2-methoxypyridin-4-y1)-7-oxothiazolo[5,4-b]pyridin-4(7H)-y1)acetamide]
–	–	5 to 50 nM	500 to 2000 nM	C=C(C)c1nc2c(=O)c(N3CCN(C(=O)c4ncnc(C)c4O)CC3)c(CC)n(CC(=O)Nc3ccc(C(F)(F)F)cc3Cl)c2s1 [Compound I-6, N-(2-chloro-4-(trifluoromethyl)phenyl)-2-(5-ethyl-6-(4-(5-hydroxy-6-methylpyrimidine-4-carbonyl)piperazin-1-yl)-7-oxo-2-(prop-1-en-2-yl)thiazolo[5,4-b]pyridin-4(7H)-yl)acetamide]
> 5000 nM	–	–	–	CCc1c(N2CCN(C(=O)c3ncnc(C)c3O)CC2)c(=O)c2nc(-c3cnn(C)c3)sc2n1CC(=O)Nc1ccc(C(F)(F)F)cc1Cl [Compound I-7, N-(2-chloro-4-(trifluoromethyl)phenyl)-2-(5-ethyl-6-(4-(5-hydroxy-6-methylpyrimidine-4-carbonyl)piperazin-1-y1)-2-(1-methyl-1H-pyrazol-4-y1)-7-oxothiazolo[5,4-b]pyridin-4(7H)-yl)acetamide]
> 5000 nM	5 to 50 nM	–	–	CCc1c(N2CCN(C(=O)c3ncnc(C)c3O)CC2)c(=O)c2sc(-c3ccnc(OC)c3)nc2n1CC(=O)NC12CC(C(F)(F)F)(C1)C2 [Compound I-8, 2-(5-ethyl-6-(4-(5-hydroxy-6-methylpyrimidine-4-carbonyl)piperazin-1-yl)-2-(2-methoxypyridin-4-y1)-7-oxothiazolo[4,5-b]pyridin-4(7H)-y1)-N-(3-(trifluoromethyl)bicyclo[1.1.1]pentan-1-yl)acetamide]
